The source of these data is patent US10364263B2, “Cyclic phosphates and cyclic phosphoramidates for the treatment of neurologic disorders” (Retrophin, Inc., priority 2015, dated 2019).

Structures are written as SMILES.

For this test, the system named is PANK2 silenced human neuroblastoma IMR32 cells (PANK2−/−). The test can be described thus: Coenzyme A assay in PANK2 silenced cells (LC-MS quantification of free CoA). The test is classed as cell-based. Particulars: compound added twice (24 h + 24 h), relative to 0.1% DMSO controls. How it is done: A human neuroblastoma IMR32 cell line (ATCC) with stably PANK2 silencing was obtained by lentiviral-delivered small hairpin RNA and cultured in MEM (Invitrogen) supplemented with 10% fetal bovine serum, 2 mM glutamine, 1% penicillin-streptomycin, 1 mM sodium pyruvate, 1 mM non essential amino acids and 1.5 g/l sodium bicarbonate.
For lentiviral shRNA expression, Human Emryonic Kidney HEK-293T cells (ATCC) were transfected with the appropriate pGFP-Lenti-shRNA constructs and packaging plasmids according to manufacturer's protocol (Origene Technologies, Inc.). Four different gene-specific shRNA expression vectors designed against multiple splice variants of PANK2 (Gene ID 80025) were used for transfection. A non-silencing shRNA construct (scrambled shRNA) and an empty vector expressing GFP alone were used as negative controls. The GFP tag subcloned into the lentiviral vectors was used to monitor the transfection efficiency.
IMR32 cells were plated on 150 cm dishes 48 h before transduction with lentiviral particles.
Three days after transduction medium was removed and replaced with fresh medium containing […] puromycin. Medium was replaced every 48 h. Levels of PANK2 expression on selected clones was assessed by Western Blot analysis.
To quantify CoA, PANK2^−/− IMR32 cells were plated on 12-well culture plates (Corning) at a density of 0.2×10^6 cells per well. After 72 h, compounds were freshly dissolved in DMSO and added to the culture medium to yield a final solvent concentration of 0.1% (v/v). Controls with medium containing 0.1% DMSO without test compounds were also included in each plate. Compound treated cells were incubated for 24 h at 37° C. Treatment was repeated after 24 h with newly dissolved compound and cells were further incubated at 37° C. for additional 24 h. Before LC-MS analysis of CoA levels, cells were harvested, counted, and collected in a 15 ml falcon tube and centrifuged at 200×g for 5 min at 4° C. Supernatant was removed and cell pellet was washed in 10 ml of ice-cold PBS. To further confirm that the numbers of cells in each sample were equivalent, an equal fraction of pellet was collected from each sample and subjected to protein determination analysis. After centrifugation and supernatant removal, the cell pellet was rapidly frozen in Liquid Nitrogen and stored at −80° C. until analysis.
Intracellular CoA levels were calculated considering an intracellular volume of 1 million cells=2 μl.
The 1×10^6 cellular pellet was extracted with 120 μl of aqueous 20% TFA. This solution was stirred for 2 min, sonicated in ultrasonic bath for 2 min, then stirred again for 1 min, and centrifuged for 15 min at 14000 g and at 4° C.
100 μL samples of supernatant were dried under N2 at 20° C. in the dark.
Samples were re-dissolved in 100 μl of 10 mM NH4^+ AcO^− buffer pH 5.1+IS (Dextrorphan 50 ng/ml), stirred for 2 min, sonicated in ultrasonic bath for 1 min, then stirred again for 1 min, and injected into LC-MS.
LC-MS/MS was performed using an Agilent HPLC (1100 Series, USA). The LC system was interfaced with an API-4000 Q-Trap triple quadrupole mass spectrometer (AB Sciex, Toronto, Canada) equipped with a TurbolonSpray ionization source operating in positive ion mode. Analyst™ software version 1.6 (AB Sciex, Toronto, Canada) was used for data acquisition and processing. CoA was separated using a Luna C18 column (2.0×50 mm; 5 μm particle size), column at 25° C. and flow rate of 0.2 ml/min. Injection volume was 15 μl. The mobile phases consisted of water containing 10 mM ammonium acetate pH 7 (mobile phase A) and MeCN-2-propanol 9:1 (mobile phase B). Elution was performed using a gradient starting at 2% B, holding at 2% B until 0.1 min, increasing to 98% B at 3.2 min, holding at 98% B until 4.5 min, returning to 2% B at 4.6 min and holding at 2% B until 7.5 min. Precursor ions and MRM transitions used were: CoA m/z 768.1→261.6 and 768.1→136.1. […]
Regarding `COC(=O)CCNC(=O)[C@@H]1O[P@](=O)(Oc2ccc(C(F)(F)F)nc2)OCC1(C)C` [2-198, methyl 3-((2R,4R)-5,5-dimethyl-2-oxido-2-((6-(trifluoromethyl)pyridin-3-yl)oxy)-1,3,2-dioxaphosphinane-4-carboxamido)propanoate], the “PANK2−/− CoA (Fold Increase): fold increase in Coenzyme A (CoA) levels relative to controls” value is listed as 13.6 Fold Increase.

For `COC(=O)CCNC(=O)[C@@H]1OP(=O)(OCOC(=O)c2cc(C(C)(C)C)n[nH]2)OCC1(C)C` (stereo partly drawn) [2-146, (((4R)-4-((3-methoxy-3-oxopropyl)carbamoyl)-5,5-dimethyl-2-oxido-1,3,2-dioxaphosphinan-2-yl)oxy)methyl 3-(tert-butyl)-1H-pyrazole-5-carboxylate], the “PANK2−/− CoA (Fold Increase): fold increase in Coenzyme A (CoA) levels relative to controls” value is 84.86 Fold Increase.

`COC(=O)CCNC(=O)[C@@H]1O[P@@](=O)(OCOC(=O)NCCSC(=O)[C@@H](N)C(C)C)OCC1(C)C` [2-194, methyl 3-((2S,4R)-2-((((2-((L-valyl)thio)ethyl)carbamoyl)oxy)methoxy)-5,5-dimethyl-2-oxido-1,3,2-dioxaphosphinane-4-carboxamido)propanoate]: the “PANK2−/− CoA (Fold Increase): fold increase in Coenzyme A (CoA) levels relative to controls” value is 11.44 Fold Increase.

As for `CCOC(=O)[C@H](Cc1ccccc1)NC(=O)OCOP1(=O)OCC(C)(C)[C@H](C(=O)NCCC(=O)OC)O1` (stereo partly drawn) [2-137, ethyl (((((4R)-4-((3-methoxy-3-oxopropyl)carbamoyl)-5,5-dimethyl-2-oxido-1,3,2-dioxaphosphinan-2-yl)oxy)methoxy)carbonyl)-L-phenylalaninate], the “PANK2−/− CoA (Fold Increase): fold increase in Coenzyme A (CoA) levels relative to controls” value turned out to be 1.1 Fold Increase.

Consider `COC(=O)CCNC(=O)[C@@H]1O[P@@](=O)(OCOC(=O)c2scnc2C(C)C)OCC1(C)C` [2-187, (((2S,4R)-4-((3-methoxy-3-oxopropyl)carbamoyl)-5,5-dimethyl-2-oxido-1,3,2-dioxaphosphinan-2-yl)oxy)methyl 4-isopropylthiazole-5-carboxylate], for which the “PANK2−/− CoA (Fold Increase): fold increase in Coenzyme A (CoA) levels relative to controls” value is 112.41 Fold Increase.

`COC(=O)CCNC(=O)[C@@H]1OP(=O)(OCOC(=O)c2ccno2)OCC1(C)C` (stereo partly drawn) [Compound No. 2-141, (((4R)-4-((3-methoxy-3-oxopropyl)carbamoyl)-5,5-dimethyl-2-oxido-1,3,2-dioxaphosphinan-2-yl)oxy)methyl isoxazole-5-carboxylate]: the “PANK2−/− CoA (Fold Increase): fold increase in Coenzyme A (CoA) levels relative to controls” value stood at 7.62 Fold Increase.

For `CCCC(=O)OCOP1(=O)OCC(C)(C)[C@H](C(=O)NCCC(=O)OC)O1` (stereo partly drawn) [Compound No. 66, (((4R)-4-((3-methoxy-3-oxopropyl)carbamoyl)-5,5-dimethyl-2-oxido-1,3,2-dioxaphosphinan-2-yl)oxy)methyl butyrate], the “PANK2−/− CoA (Fold Increase): fold increase in Coenzyme A (CoA) levels relative to controls” value is 83.72 Fold Increase.

As for `CC(C)OC(=O)CCNC(=O)[C@@H]1OP(=O)(O)OCC1(C)C` [2-110, isopropyl 3-((4R)-2-hydroxy-5,5-dimethyl-2-oxido-1,3,2-dioxaphosphinane-4-carboxamido)propanoate], the “PANK2−/− CoA (Fold Increase): fold increase in Coenzyme A (CoA) levels relative to controls” value was 2.17 Fold Increase.

As for `COC(=O)CCNC(=O)[C@@H]1OP(=O)(N2CCN(C(C)=O)CC2)OCC1(C)C` (stereo partly drawn) [compound 139, methyl 3-((4R)-2-(4-acetylpiperazin-1-yl)-5,5-dimethyl-2-oxido-1,3,2-dioxaphosphinane-4-carboxamido)propanoate], the “PANK2−/− CoA (Fold Increase): fold increase in Coenzyme A (CoA) levels relative to controls” value is given as 2.72 Fold Increase.

As to `COC(=O)CCNC(=O)[C@@H]1O[P@@](=O)(OCOC(=O)N[C@@H](CSC(=O)C(C)(C)C)C(=O)OCC(=O)c2ccccc2)OCC1(C)C` [2-199, 2-oxo-2-phenylethyl N-(((((2S,4R)-4-((3-methoxy-3-oxopropyl)carbamoyl)-5,5-dimethyl-2-oxido-1,3,2-dioxaphosphinan-2-yl)oxy)methoxy)carbonyl)-S-pivaloyl-L-cysteinate], the “PANK2−/− CoA (Fold Increase): fold increase in Coenzyme A (CoA) levels relative to controls” value stood at 1.98 Fold Increase.

For `COC(=O)CCNC(=O)[C@@H]1O[P@@](=O)(Oc2ccc(C#N)cc2)OCC1(C)C` [2-116, methyl 3-((2S,4R)-2-(1-cyanophenoxy)-5,5-dimethyl-2-oxido-1,3,2-dioxaphosphinane-4-carboxamido)propanoate], the “PANK2−/− CoA (Fold Increase): fold increase in Coenzyme A (CoA) levels relative to controls” value is listed as 0.95 Fold Increase.

As to `COC(=O)CCNC(=O)[C@@H]1O[P@](=O)(OCOC(=O)NCCSC(=O)[C@@H](N)C(C)C)OCC1(C)C` [2-193, methyl 3-((2R,4R)-2-((((2-((L-valyl)thio)ethyl)carbamoyl)oxy)methoxy)-5,5-dimethyl-2-oxido-1,3,2-dioxaphosphinane-4-carboxamido)propanoate], the “PANK2−/− CoA (Fold Increase): fold increase in Coenzyme A (CoA) levels relative to controls” value is 5.03 Fold Increase.

Regarding `COC(=O)CCNC(=O)[C@@H]1OP(=O)(NCCc2ccccc2)OCC1(C)C` (stereo partly drawn) [compound 112, methyl 3-((4R)-5,5-dimethyl-2-oxido-2-(phenethylamino)-1,3,2-dioxaphosphinane-4-carboxamido)propanoate], the “PANK2−/− CoA (Fold Increase): fold increase in Coenzyme A (CoA) levels relative to controls” value is given as 1.42 Fold Increase.

On to `COC(=O)CCNC(=O)[C@@H]1OP(=O)(OCOC(=O)NCCOC(=O)[C@@H](N)C(C)C)OCC1(C)C` (stereo partly drawn) [2-195, 2-((((((4R)-4-((3-methoxy-3-oxopropyl)carbamoyl)-5,5-dimethyl-2-oxido-1,3,2-dioxaphosphinan-2-yl)oxy)methoxy)carbonyl)amino)ethyl L-valinate], for which the “PANK2−/− CoA (Fold Increase): fold increase in Coenzyme A (CoA) levels relative to controls” value was determined as 1.91 Fold Increase.

Turning to `COC(=O)CCNC(=O)[C@@H]1OP(=O)(OCOC(=O)c2cnco2)OCC1(C)C` (stereo partly drawn) [Compound No. 87, (((4R)-4-((3-methoxy-3-oxopropyl)carbamoyl)-5,5-dimethyl-2-oxido-1,3,2-dioxaphosphinan-2-yl)oxy)methyl oxazole-5-carboxylate], the “PANK2−/− CoA (Fold Increase): fold increase in Coenzyme A (CoA) levels relative to controls” value was found to be 58.7 Fold Increase.

On to `COC(=O)CCNC(=O)[C@@H]1O[P@@](=O)(OCOC(=O)c2cc(C)nn2C)OCC1(C)C` [2-182, (((2S,4R)-4-((3-methoxy-3-oxopropyl)carbamoyl)-5,5-dimethyl-2-oxido-1,3,2-dioxaphosphinan-2-yl)oxy)methyl 1,3-dimethyl-lH-pyrazole-5-carboxylate], for which the “PANK2−/− CoA (Fold Increase): fold increase in Coenzyme A (CoA) levels relative to controls” value was 24.98 Fold Increase.

Take `COC(=O)CCNC(=O)[C@@H]1OP(=O)(N[C@@H](Cc2ccccc2)C(=O)OC)OCC1(C)C` (stereo partly drawn) [compound 9, methyl ((4R)-4-((3-methoxy-3-oxopropyl)carbamoyl)-5,5-dimethyl-2-oxido-1,3,2-dioxaphosphinan-2-yl)-L-phenylalaninate]: the “PANK2−/− CoA (Fold Increase): fold increase in Coenzyme A (CoA) levels relative to controls” value was 1.83 Fold Increase.

`COC(=O)CCNC(=O)[C@@H]1OP(=O)(N2CCCCC2)OCC1(C)C` (stereo in doubt) [compound 133, methyl 3-((2R,4R)-5,5-dimethyl-2-oxido-2-(piperidin-1-yl)-1,3,2-dioxaphosphinane-4-carboxamido)propanoate]: the “PANK2−/− CoA (Fold Increase): fold increase in Coenzyme A (CoA) levels relative to controls” value turned out to be 1.45 Fold Increase.

With `CCOC(=O)[C@H](CC(C)C)NP1(=O)OCC(C)(C)[C@H](C(=O)NCCC(=O)OC)O1` (stereo partly drawn) [compound 8, ethyl ((4R)-4-((3-methoxy-3-oxopropyl)carbamoyl)-5,5-dimethyl-2-oxido-3,3,2-dioxaphosphinan-2-yl)-L-leucinate], the “PANK2−/− CoA (Fold Increase): fold increase in Coenzyme A (CoA) levels relative to controls” value is 0.69 Fold Increase.
